Values quoted from earlier work in patent US10729636B2, “Compositions comprising peptide [sequence]” (NURITAS LIMITED, priority 2016, dated 2020).
Like-named read-outs stand apart in the source and are kept apart here.

Tests used:
[1] = cited from earlier work
[2] = humans who took more vitamin E on a regular basis vs those who took less; study on nurses; cited from earlier work
[3] = test system: lipoproteins; conditions: binding to lipoproteins; cited from earlier work

| Compound | half-life ([1]; in words) | half-life ([1]; in humans) | further results |
| --- | --- | --- | --- |
| gonadotropin-releasing hormone | very short |  |  |
| vitamin E |  |  | lower incidence of heart disease [2]: 41% |
| NC(=O)CC[C@@H]1NC(=O)[C@H](Cc2ccccc2)NC(=O)[C@H](Cc2ccc(O)cc2)NC(=O)[C@@H](N)CSSC[C@@H](C(=O)N2CCC[C@H]2C(=O)N[C@@H](CCCN=C(N)N)C(=O)NCC(N)=O)NC(=O)[C@H](CC(N)=O)NC1=O [vasopressin] |  | 10 to 35 min |  |
| CCNC(=O)[C@@H]1CCCN1C(=O)[C@H](CCCNC(=N)N)NC(=O)[C@H](CC(C)C)NC(=O)[C@@H](COC(C)(C)C)NC(=O)[C@H](Cc1ccc(O)cc1)NC(=O)[C@H](CO)NC(=O)[C@H](Cc1c[nH]c2ccccc12)NC(=O)[C@H](Cc1cnc[nH]1)NC(=O)[C@@H]1CCC(=O)N1 [buserelin] | much longer |  |  |
| C[C@@H](O)[C@@H]1NC(=O)[C@H](CCCCN)NC(=O)[C@@H](Cc2c[nH]c3ccccc23)NC(=O)[C@H](Cc2ccccc2)NC(=O)[C@@H](NC(=O)[C@H](N)Cc2ccccc2)CSSC[C@@H](C(=O)N[C@H](CO)[C@@H](C)O)NC1=O [octreotide] |  | about 100 min | fraction unbound [3]: 0.65 |
